Our source for the IC50 values is patent US7550478B2, “Tyrosine kinase inhibitors” (Merck & Co. Inc., priority 2006, dated 2009).

This test concerns the target T1, human c-Met (Homo sapiens, UniProt P08581).
T1 construct: Recombinant GST-tagged cytosolic domains of human c-Met; 6xHis; made in house; host or cells: Sf9 or Sf21 insect cells (baculovirus, Pharmingen vector pGcGHLT-A, B or C)
Briefly: In vitro kinase assay (homogeneous time-resolved tyrosine kinase assay, HTRF) for c-Met. Type of test: biochemical. Conditions: recombinant GST-tagged cytosolic domain of c-Met, 0.2 nM c-Met, 50 μM MgATP, 80 min at room temperature. The text has this: Recombinant GST-tagged cytosolic domains of human c-Met and other receptor tyrosine kinases including mouse c-Met, human Ron, KDR, IGFR, EGFR, FGFR, Mer, TrkA and Tie2 are used to determine whether the compounds of the instant invention modulate the enzymatic activities of these kinases.
Soluble recombinant GST-tagged cytosolic domains of c-Met and other receptor tyrosine kinases are expressed in a baculovirus system (Pharmingen) according to a protocol recommended by the manufacturer. The c-DNA encoding each cytosolic domain is subcloned into a baculovirus expression vector (pGcGHLT-A, B or C, Pharmingen) containing an in frame 6× histidine tag and a GST tag. […] The protein concentrations of the fusion proteins are determined using Coomassie Plus Protein Assay (Pierce) with BSA as standard.
The kinase activities of c-Met and other kinases are measured using a modified version of the homogeneous time-resolved tyrosine kinase assay described by Park et al. (1999, Anal. Biochem. 269:94-104).
The procedure for determining the potency of a compound to inhibit c-Met kinase comprises the following steps: • 1. […] Read HTRF signals on a Victor reader (PerkinElmer) in HTRF mode after 60 min. • 6. IC50 is determined by fitting the observed relationship between compound concentration and HTRF signal with a 4-parameter logistic equation. […]
A general note: Time-resolved FRET reads energy transfer from a long-lived donor to a nearby acceptor.

Bounds are passed on as bounds.

T1 sequence (P08581 956-1390 limits assumed): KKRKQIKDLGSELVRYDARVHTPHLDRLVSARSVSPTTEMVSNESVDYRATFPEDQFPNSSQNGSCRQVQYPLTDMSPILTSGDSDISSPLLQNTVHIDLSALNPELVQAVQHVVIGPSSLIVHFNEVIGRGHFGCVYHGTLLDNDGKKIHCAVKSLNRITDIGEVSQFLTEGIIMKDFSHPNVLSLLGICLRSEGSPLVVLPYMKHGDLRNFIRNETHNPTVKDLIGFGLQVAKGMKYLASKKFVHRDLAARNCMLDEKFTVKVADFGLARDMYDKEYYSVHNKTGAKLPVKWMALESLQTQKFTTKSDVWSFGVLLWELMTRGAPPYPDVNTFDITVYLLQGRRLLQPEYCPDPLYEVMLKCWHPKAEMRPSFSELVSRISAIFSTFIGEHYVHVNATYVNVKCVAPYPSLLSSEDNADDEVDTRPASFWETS

Turning to `O=c1c2cc(-c3ccccc3)cnc2ccc2cccc(Br)c12` [Compound 3, 6-bromo-3-phenyl-5H-benzo[4,5]cyclohepta[1,2-b]pyridin-5-one], the IC50 (usually the point on the concentration scale where inhibition reaches its midpoint) was ≤ 50 µM.
